Blank lines part the entries; values can stand above or below the compound they belong to.
Experiments:
Plasma [1] = test: Drug level in Fischer 344 rat plasma treated with 2-Methylalanyl-N-{1-[(1R)-1-(4-fluorophenyl)-1-methyl-2-oxo-2-pyrrolidin-1-ylethyl]-1H-imidazol-4-yl}-5-phenyl-D-norvalinamide at 3 mg/kg, iv by LC-MS/MS analysis; assay type: ADME, organism-based; parameters: dose 3 mg/kg, route intravenous; conditions: in vivo
Plasma [2] = test: Drug level in beagle dog plasma treated with 2-Methylalanyl-N-{1-[(1R)-1-(4-fluorophenyl)-1-methyl-2-oxo-2-pyrrolidin-1-ylethyl]-1H-imidazol-4-yl}-5-phenyl-D-norvalinamide at 1 mg/kg, iv by LC-MS/MS analysis; assay type: ADME, organism-based, Canis lupus familiaris; parameters: dose 1 mg/kg, route intravenous; conditions: in vivo
[3] = Drug level in Fischer 344 rat urine treated with 2-Methylalanyl-N-{1-[(1R)-1-(4-fluorophenyl)-1-methyl-2-oxo-2-pyrrolidin-1-ylethyl]-1H-imidazol-4-yl}-5-phenyl-D-norvalinamide at 3 mg/kg, iv and 30 mg/kg, po by LC-MS analysis; assay type: ADME, organism-based; conditions: in vivo
[4] = Drug level in beagle dog urine treated with 2-Methylalanyl-N-{1-[(1R)-1-(4-fluorophenyl)-1-methyl-2-oxo-2-pyrrolidin-1-ylethyl]-1H-imidazol-4-yl}-5-phenyl-D-norvalinamide at 20 mg/kg, po by LC-MS analysis; assay type: ADME, organism-based, Canis lupus familiaris; parameters: dose 20 mg/kg, route oral; conditions: in vivo
[5] = Drug level in Fischer 344 rat urine treated with 2-Methylalanyl-N-{1-[(1R)-1-(4-fluorophenyl)-1-methyl-2-oxo-2-pyrrolidin-1-ylethyl]-1H-imidazol-4-yl}-5-phenyl-D-norvalinamide at 3 mg/kg, iv and 30 mg/kg, po by LC-UV spectrophotometry; assay type: ADME, organism-based; conditions: in vivo
Plasma [6] = test: Drug metabolism in Fischer 344 rat plasma assessed as (R)-2-(2-amino-2-methylpropanamido)-5-phenylpentanoic acid formation at 3 mg/kg, iv by LC-MS analysis; assay type: ADME, organism-based; parameters: dose 3 mg/kg, route intravenous; conditions: in vivo
Plasma [7] = test: Drug metabolism in Fischer 344 rat plasma assessed as (R)-2-(4-amino-1H-imidazol-1-yl)-2-(4-fluorophenyl)-1-(pyrrolidin-1-yl)propan-1-one formation at 3 mg/kg, iv by LC-MS analysis; assay type: ADME, organism-based; parameters: dose 3 mg/kg, route intravenous; conditions: in vivo
[8] = Terminal half life in beagle dog at 1 mg/kg, iv; assay type: ADME, organism-based, Canis lupus familiaris; parameters: dose 1 mg/kg, route intravenous; conditions: in vivo, read-out: beta t1/2 (converted)
[9] = Terminal half life in Fischer 344 rat at 3 mg/kg, iv; assay type: ADME, organism-based; parameters: dose 3 mg/kg, route intravenous; conditions: in vivo, read-out: beta t1/2 (converted)
Plasma [10] = test: Drug metabolism in beagle dog plasma assessed as (R)-2-(4-amino-1H-imidazol-1-yl)-2-(4-fluorophenyl)-1-(pyrrolidin-1-yl)propan-1-one formation at 1 mg/kg, iv by LC-MS analysis; assay type: ADME, organism-based, Canis lupus familiaris; parameters: dose 1 mg/kg, route intravenous; conditions: in vivo
[11] = Drug excretion in beagle dog urine assessed as (2R,2'R)-2,2'-(diimidazo[4,5-b:4',5'-e]pyridine-1,7-diyl)bis(2-(4-fluorophenyl)-1-(pyrrolidin-1-yl)propan-1-one) formation at 20 mg/kg, po by LC-MS analysis; assay type: ADME, organism-based, Canis lupus familiaris; parameters: dose 20 mg/kg, route oral; conditions: in vivo
[12] = Drug metabolism in human hepatocytes assessed as (2R,2'R)-2,2'-(diimidazo[4,5-b:4',5'-e]pyridine-1,7-diyl)bis(2-(4-fluorophenyl)-1-(pyrrolidin-1-yl)propan-1-one) formation at 50 uM after 4 hrs; assay type: ADME, cell-based, Hepatocyte
[13] = Oral bioavailability in beagle dog at 3 mg/kg; assay type: ADME, organism-based, Canis lupus familiaris; conditions: in vivo
Liver [14] = test: Drug metabolism in dog liver slices assessed as (2R,2'R)-2,2'-(diimidazo[4,5-b:4',5'-e]pyridine-1,7-diyl)bis(2-(4-fluorophenyl)-1-(pyrrolidin-1-yl)propan-1-one) formation at 50 uM after 24 hrs; assay type: ADME, tissue-based, Canis lupus familiaris
[15] = Drug excretion in Fischer 344 rat urine assessed as (2R,2'R)-2,2'-(diimidazo[4,5-b:4',5'-e]pyridine-1,7-diyl)bis(2-(4-fluorophenyl)-1-(pyrrolidin-1-yl)propan-1-one) formation at 3 mg/kg, iv and 30 mg/kg, po by LC-UV spectrophotometry; assay type: ADME, organism-based; conditions: in vivo
[16] = Plasma clearance in beagle dog at 1 mg/kg, iv; assay type: ADME, organism-based, Canis lupus familiaris; parameters: dose 1 mg/kg, route intravenous
[17] = Drug excretion in Fischer 344 rat urine assessed as (2R,2'R)-2,2'-(diimidazo[4,5-b:4',5'-e]pyridine-1,7-diyl)bis(2-(4-fluorophenyl)-1-(pyrrolidin-1-yl)propan-1-one) formation at 3 mg/kg, iv and 30 mg/kg, po by LC-MS analysis; assay type: ADME, organism-based; conditions: in vivo
[18] = Plasma clearance in Fischer 344 rat at 3 mg/kg, iv; assay type: ADME, organism-based; parameters: dose 3 mg/kg, route intravenous
[19] = Drug excretion in beagle dog urine assessed as (R)-2-(4-amino-1H-imidazol-1-yl)-2-(4-fluorophenyl)-1-(pyrrolidin-1-yl)propan-1-one formation at 20 mg/kg, po by LC-MS analysis; assay type: ADME, organism-based, Canis lupus familiaris; parameters: dose 20 mg/kg, route oral; conditions: in vivo
[20] = Oral bioavailability in Fischer 344 rat at 30 mg/kg; assay type: ADME, organism-based; conditions: in vivo
Liver [21] = test: Drug metabolism in rat liver slices assessed as (2R,2'R)-2,2'-(diimidazo[4,5-b:4',5'-e]pyridine-1,7-diyl)bis(2-(4-fluorophenyl)-1-(pyrrolidin-1-yl)propan-1-one) formation at 50 uM after 24 hrs; assay type: ADME, tissue-based
[22] = Drug excretion in Fischer 344 rat urine assessed as (R)-2-(4-amino-1H-imidazol-1-yl)-2-(4-fluorophenyl)-1-(pyrrolidin-1-yl)propan-1-one formation at 3 mg/kg, iv and 30 mg/kg, po by LC-MS analysis; assay type: ADME, organism-based; conditions: in vivo

Drug metabolism (Plasma [1]): metabolite_detected
Structure (SMILES): CC(C)(N)C(=O)N[C@H](CCCc1ccccc1)C(=O)O

Drug metabolism (Plasma [2]): metabolite_detected
Drug excretion [3]: metabolite_detected
Drug excretion [4]: metabolite_detected
Drug metabolism (Plasma [1]): metabolite_detected
Structure (SMILES): C[C@](C(=O)N1CCCC1)(c1ccc(F)cc1)n1cnc(N)c1

Drug excretion [3]: metabolite_detected
Drug excretion [4]: metabolite_detected
Drug excretion [5]: metabolite_detected
Structure (SMILES): C[C@](C(=O)N1CCCC1)(c1ccc(F)cc1)n1cnc2nc3ncn([C@@](C)(C(=O)N4CCCC4)c4ccc(F)cc4)c3cc21

Drug metabolism (Plasma [6]): metabolite_detected
Drug metabolism (Plasma [7]): metabolite_detected
half-life [8]: 5 h
half-life [9]: 2 h
Drug metabolism (Plasma [10]): metabolite_detected
Drug excretion [11]: metabolite_detected
Drug metabolism [12]: metabolite_not_detected
bioavailability [13]: 33%
Drug metabolism (Liver [14]): metabolite_not_detected
Drug excretion [15]: metabolite_detected
clearance [16]: 33 mL/min/kg
Drug excretion [17]: metabolite_detected
clearance [18]: 75 mL/min/kg
Drug excretion [19]: metabolite_detected
bioavailability [20]: 74%
Drug metabolism (Liver [21]): metabolite_not_detected
Drug excretion [22]: metabolite_detected
Structure (SMILES): CC(C)(N)C(=O)N[C@H](CCCc1ccccc1)C(=O)Nc1cn([C@@](C)(C(=O)N2CCCC2)c2ccc(F)cc2)cn1

— ChEMBL document CHEMBL3525909, “Metabolism of LY654322, a growth hormone secretagogue, to an unusual diimidazopyridine metabolite” (Drug Metab Dispos, 2011)
